According to ChEMBL document CHEMBL1201862, “PubChem BioAssay data set” (2004):
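Where inhibition never reached the appropriate level, the endpoint shown equals the highest concentration tested. Otherwise, values were interpolated linearly from a five-concentration, 48-hour dose response in 96-well plates. At the GI50, growth is halved.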 The source made the active and inactive calls. No stated cut-off is given here; in the data, active = GI50 up to about 1.1 µM and inactive = higher.

Key:
Assay in all cases: NCI anticancer screen, dose series, 48 h
[1] = test system: HOP-92
[2] = test system: LOX IMVI
[3] = test system: NCI/ADR-RES
[4] = test system: SNB-75
[5] = test system: UACC-257
[6] = test system: HCT-116
[7] = test system: SN12C
[8] = test system: CAKI-1
[9] = test system: HOP-62
[10] = test system: MDA-MB-435
[11] = test system: OVCAR-4
[12] = test system: NCI-H23
[13] = test system: HL-60
[14] = test system: OVCAR-5
[15] = test system: T47D
[16] = test system: RXF 393
[17] = test system: SF-539
[18] = test system: MDA-MB-231
[19] = test system: SF-295
[20] = test system: M14
[21] = test system: UO-31
[22] = test system: SK-OV-3
[23] = test system: MCF7
[24] = test system: BT-549
[25] = test system: OVCAR-3
[26] = test system: SK-MEL-28
[27] = test system: EKVX
[28] = test system: U-251
[29] = test system: A549
[30] = test system: HCT-15
[31] = test system: OVCAR-8
[32] = test system: MOLT-4
[33] = test system: K562
[34] = test system: PC-3
[35] = test system: SF-268
[36] = test system: TK-10
[37] = test system: SW-620
[38] = test system: ACHN
[39] = test system: NCI-H460
[40] = test system: HT-29
[41] = test system: SK-MEL-2
[42] = test system: CCRF-CEM
[43] = test system: MDA-N
[44] = test system: 786-0
[45] = test system: IGROV-1
[46] = test system: NCI-H226
[47] = test system: A498
[48] = test system: COLO 205
[49] = test system: RPMI-8226
[50] = test system: SR
[51] = test system: HCC 2998
[52] = test system: UACC-62
[53] = test system: KM12
[54] = test system: DU-145
[55] = test system: SNB-19
[56] = test system: Hs-578T
[57] = test system: NCI-H522
[58] = test system: Malme-3M
[59] = test system: SK-MEL-5

Measured: GI50

Cc1cn(CCCCCOC(=O)NC(CCCNC(N)=O)C(=O)O)c(=O)[nH]c1=O (stereo not drawn)
inactive: [1] > 100 µM | [2] > 100 µM | [3] > 100 µM | [4] > 100 µM | [5] > 100 µM | [6] > 100 µM | [7] > 100 µM | [8] > 100 µM | [9] > 100 µM | [10] > 100 µM | [11] > 100 µM | [12] > 100 µM | [13] > 100 µM | [14] > 100 µM | [15] > 100 µM | [16] > 100 µM | [17] > 100 µM | [18] > 100 µM | [19] > 100 µM | [20] > 100 µM | [21] > 100 µM | [22] > 100 µM | [23] > 100 µM | [24] > 100 µM | [25] > 100 µM | [26] > 100 µM | [27] > 100 µM | [28] > 100 µM | [29] > 100 µM | [31] > 100 µM | [32] > 100 µM | [33] > 100 µM | [34] > 100 µM | [35] > 100 µM | [36] > 100 µM | [37] > 100 µM | [38] > 100 µM | [39] > 100 µM | [40] > 100 µM | [41] > 100 µM | [42] > 100 µM | [43] > 100 µM | [44] > 100 µM | [45] 65.3 µM | [46] > 100 µM | [47] > 100 µM | [48] > 100 µM | [49] > 100 µM | [50] > 100 µM | [51] > 100 µM | [52] > 100 µM | [53] > 100 µM | [54] > 100 µM | [55] > 100 µM | [56] > 100 µM
> 100 µM: [30]

O=C1CCCC2(c3ccccc3)Nc3ccccc3N12 (stereo not drawn)
inactive: [1] > 100 µM | [57] > 100 µM | [2] > 100 µM | [3] > 100 µM | [4] > 100 µM | [5] > 100 µM | [6] > 100 µM | [7] > 100 µM | [8] > 100 µM | [9] > 100 µM | [10] > 100 µM | [11] > 100 µM | [12] > 100 µM | [13] 55.6 µM | [14] > 100 µM | [15] > 100 µM | [16] > 100 µM | [17] > 100 µM | [18] > 100 µM | [19] 97.1 µM | [20] > 100 µM | [21] > 100 µM | [22] > 100 µM | [23] > 100 µM | [24] > 100 µM | [25] > 100 µM | [26] > 100 µM | [27] > 100 µM | [28] > 100 µM | [29] > 100 µM | [31] > 100 µM | [32] > 100 µM | [33] 82.6 µM | [34] > 100 µM | [35] > 100 µM | [36] > 100 µM | [37] > 100 µM | [38] > 100 µM | [39] 78.5 µM | [40] > 100 µM | [41] > 100 µM | [42] > 100 µM | [43] > 100 µM | [44] > 100 µM | [45] > 100 µM | [46] > 100 µM | [48] > 100 µM | [49] > 100 µM | [50] 67.8 µM | [51] > 100 µM | [58] > 100 µM | [59] > 100 µM | [52] 98.6 µM | [53] > 100 µM | [54] > 100 µM | [55] > 100 µM | [56] > 100 µM
> 100 µM: [30]

Cc1c(NC(=O)CSC(=S)N2CCN(Cc3ccccc3)CC2)c(=O)n(-c2ccccc2)n1C
> 100 µM: [30]
inactive: [57] > 100 µM | [2] > 100 µM | [3] > 100 µM | [5] > 100 µM | [6] > 100 µM | [7] > 100 µM | [8] > 100 µM | [9] > 100 µM | [10] > 100 µM | [11] > 100 µM | [12] > 100 µM | [14] > 100 µM | [15] > 100 µM | [16] > 100 µM | [17] > 100 µM | [18] > 100 µM | [19] > 100 µM | [20] > 100 µM | [21] > 100 µM | [22] > 100 µM | [23] > 100 µM | [24] > 100 µM | [25] > 100 µM | [26] > 100 µM | [27] > 100 µM | [28] > 100 µM | [29] > 100 µM | [31] > 100 µM | [32] > 100 µM | [33] > 100 µM | [34] > 100 µM | [35] > 100 µM | [36] > 100 µM | [37] > 100 µM | [38] > 100 µM | [39] > 100 µM | [40] > 100 µM | [41] > 100 µM | [42] > 100 µM | [43] > 100 µM | [44] > 100 µM | [45] > 100 µM | [46] > 100 µM | [48] > 100 µM | [49] > 100 µM | [50] > 100 µM | [51] 28.4 µM | [58] > 100 µM | [59] > 100 µM | [53] > 100 µM | [54] > 100 µM | [55] > 100 µM | [56] > 100 µM
